# From patent US20260167659A1, “STING AGONISTS” (LIGACHEM BIOSCIENCES INC., priority 2022, published 2026)
# Tests used:
# [1] = Normal cell cytotoxicity in PBMCs, CellTiter-Glo; type: cell-based; conditions: human, read-out: In vitro cell cytotoxicity in PBMCs CC50
# Description: PBMCs were also purchased from […]™ (#700025.2). The cells (8.0×10^4 cells per well) were seeded in a flat-bottomed 96-well plate in RPMI 1640 medium (Gibco, #22400097) with 10% heat-inactivated FBS and 1× Antibiotic-Antimycotic (Gibco, #15240062) and rested for 24 hours at 37° C. […] After 72 hours, the cell viability was measured using CellTiter-Glo Luminescent Cell Viability Assay (Promega, #G7573) according to the manufacture's instruction. The signal was detected using an EnVision Xcite multilabel reader and data were analyzed using GraphPad Prism 8 software.
# To verify the effect of the STING agonist compounds in normal cell cytotoxicity, the PBMCs were treated with the STING agonist compounds for 3 days and measured the percentage of cell death.
# [2] = Plasma pharmacokinetics in naive Balb/C mouse, LC-MS/MS; type: in vivo; conditions: 1.5 mg/kg single IV; for AUC∞, norm / Cmax, norm: n = 3, dose-normalised; for AUC(0-inf) / AUC(0-t) / C0 / Cmax / clearance / half-life / Vd: female; for AUC(0-inf) / AUC(0-t) / C0 / Cmax: n = 3, plasma; for clearance / half-life / Vd: plasma; for clearance / half-life: n = 3; for Vd: n = 3, read-out: VSS
# Description: For in vivo evaluation of STING agonist compounds described herein in naïve Balb/C mouse, single doses of STING agonist compounds were given at 1.5 mg/kg intravenously into female BALB/c mice (Orientbio, South Korea) at 6-8 weeks of age. Pharmacokinetics were studied following injection of the STING agonist compounds into Balb/C mice. Plasma samples were taken at various time points and stored frozen for analysis. The plasma concentrations of the STING agonist compounds at the indicated time points were measured using a LC-MS/MS analysis method.
# Briefly, 250 μL of acetonitrile (ACN) solution was added in both 50 μL of sample and 50 μL of plasma containing 10 nM Dextromethorphan (internal standard), and the solutions were mixed vigorously using a vortex mixer for 5 minutes. The samples were then spun down at 14,000 rpm, 4° C. for 5 minutes. 100 μL of supernatants were combined with 100 μL of mobile phase A (0.1% formic acid in water with 5% ACN) and mixed thoroughly. The samples were measured for the STING agonist compounds using a LC-MS/MS (Nexera LC40 (SHIMADZU) and QTRAP4500 (SCIEX)).
# [3] = test system: human PBMCs (CD8+ T cells and NK cells); test: CD8+ T and NK cell activation in PBMCs by flow cytometry; type: cell-based; conditions: for expansion of activated CD8+ T cells / expansion of activated NK cells: 3 μM, 24 hours; for expansion of activated CD8+ T cells: FIG. 5A; for expansion of activated NK cells: FIG. 5B
# Description: To test the effect of STING agonist compounds described herein in the activation of innate and adaptive immune cells, flow cytometry (FACS) was performed. Human THP-1 cells (Korean Cell Line Bank, #40202) and PBMCs were seeded at 1.2×10^5 cells per well in a round-bottomed 96-well plate in RPMI 1640 medium (Gibco, #22400097) supplemented with 10% heat-inactivated FBS and 1× Antibiotic-Antimycotic (Gibco, #15240062) and rested for 24 hours at 37° C. The cells were stimulated with the STING agonist compounds as described; For THP-1 stimulation, the cells were treated with the STING agonist compound (Compound 313) in a 5-fold serial dilution from 1 μM for 48 hours. The induction of cell surface activation markers, CD86 (co-stimulatory molecule) and HLA-DR (MHC-class II), was measured by flow cytometry. […] For flow cytometry analysis, the stimulated cells were centrifuged at 300 g for 5 minutes at 4° C., and then resuspended in FACS buffer (2% FBS, 2 mM EDTA in PBS). After staining cells with human Fc blocker (BD Biosciences, #564220) in FACS buffer for 10 minutes at 4° C. Subsequently, the cells were stained with fluorescence-conjugated antibodies against CD8, CD3, CD56, and CD69 for CD8 T and NK cells activation and against CD86 and MHC-II for THP-1 naïve cells activation for 40 minutes at 4° C. After washing three times with FACS buffer, the cells were resuspended in FACS buffer and analyzed by FACSlyric (BD bioscience). The data were analyzed with Flowjo 9.0 software (BD bioscience).
# After treating human PBMCs with the STING agonist compounds, it was analyzed the activation of CD8^+ T cells and NK cells by measuring CD69, an activation marker, on their cell surface by flow cytometry.
# [4] = Normal cell cytotoxicity in CD34+ HSC, CellTiter-Glo; type: cell-based; conditions: human, CD34+ hematopoietic stem cells (HSCs), read-out: In vitro cell cytotoxicity in CD34+ HSC CC50
# Description: The CD34^+ hematopoietic stem cells (HSCs) were purchased from […]™ (#70002.3). The cells (2×10^4 cells per well) were cultured in StemSpan™ SFEM II medium supplemented with StemSpan™ CD34+ Expansion Supplement (#02691) in a 6-well plate at 37° C. for 7 days. On day 3 or 4, an equal volume of fresh complete medium was added into the cell culture. On day 7, the cells (4×10^4 cells per well) were seeded in a 96-well white plate and rested for 24 hours in the same condition.
# After 72 hours, the cell viability was measured using CellTiter-Glo Luminescent Cell Viability Assay (Promega, #G7573) according to the manufacture's instruction. The signal was detected using an EnVision Xcite multilabel reader and data were analyzed using GraphPad Prism 8 software.
# [5] = target: T1, human STING (Homo sapiens, UniProt Q86WV6, H232R); test: Direct STING binding, HUMAN STING WT BINDING KIT (Cisbio); conditions: direct binding to human STING WT protein in vitro; read-out: Binding potency EC50
# T1 construct: purchased Cisbio 64BDSTGPEG
# T1 sequence (Q86WV6 whole entry H232R): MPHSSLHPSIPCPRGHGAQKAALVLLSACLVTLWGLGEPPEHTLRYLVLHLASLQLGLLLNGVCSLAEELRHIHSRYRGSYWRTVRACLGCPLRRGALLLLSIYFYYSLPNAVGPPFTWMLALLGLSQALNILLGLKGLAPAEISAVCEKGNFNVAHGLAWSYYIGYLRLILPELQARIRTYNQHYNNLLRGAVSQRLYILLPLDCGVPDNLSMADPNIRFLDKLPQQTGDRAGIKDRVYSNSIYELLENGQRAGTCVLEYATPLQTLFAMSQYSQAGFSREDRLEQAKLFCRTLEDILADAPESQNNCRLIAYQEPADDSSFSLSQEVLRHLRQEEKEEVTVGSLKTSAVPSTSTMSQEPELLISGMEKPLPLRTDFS
# Description: Additionally, for analysis of direct binding potency of STING agonist compounds described herein to human STING, HUMAN STING WT BINDING KIT (Cisbio, #64BDSTGPEG) was used according to the manufacture's instruction.
# [6] = target: T2, hSTING-WT (R232) (Homo sapiens, UniProt Q86WV6, H232R); test: STING activation, THP1-Dual IRF3 reporter assay, hSTING-R232 cells; type: cell-based; conditions: IRF3 luciferase reporter, 24 hours, read-out: STING activity using hSTING-R232 cells EC50
# T2 construct: host or cells: THP1-Dual cells (human monocytes) with knocked-in hSTING R232
# T2 sequence (Q86WV6 whole entry H232R): as above
# Description: To assess potency of STING agonist compounds described herein, THP1-Dual™ Cells (NF—KB-SEAP and IRF-Lucia luciferase reporter monocytes, InvivoGen) were used. The reporter cells were knocked-in either of hSTING-WT (R232, #thpd-r232), HAQ variant (#thpd-nfis), or H232 variant (#thpd-h232). All cells were cultured at 37° C. in a humidified incubator at 5% CO2 and maintained in RPMI 1640 medium (Gibco, #22400097) supplemented with 10% heat-inactivated FBS and 1×Pen-Strep (Gibco, #15140122). To measure STING agonist-mediated IRF3 activity, the cells (9.0×10^4 cells per well) were seeded in a flat-bottomed 96-well plate. The next day, the cells were treated with compounds in a serial dilution for 24 hours. Subsequently, 20 μL of the cell culture supernatant and 50 μL of the QUANTI-Luc™ reagent (InvivoGen, #rep-qlc) were mixed in a 96-well white plate and then, luciferase activity was measured using an EnVision Xcite multilabel reader. The data were analyzed using Prism8 software (4-parameter).
# The potency of STING agonist compounds was evaluated by the activation of Type I Interferon pathway using THP-1 IRF3 reporter assay.
# [7] = test system: human peripheral blood mononuclear cells (PBMCs); test: Cytokine production induction in PBMCs (ELISA); type: cell-based; conditions: 1 μM, 24 hours; for human CXCL-10 production: FIG. 1A; for human IFNα production: FIG. 1B
# Description: The cells (2.0×10^4 cells per well) were seeded in a flat-bottomed 96-well plate. PBMCs were stimulated with STING agonist compounds described herein (Compound 214, 221, and 230) at 1 μM for 24 hours. BxPC-3 and MDA-MB-468 tumor cells were treated with STING agonist compounds described herein (Compound 313) in a 5-fold serial dilution from […] for 24 hours, respectively. The levels of cytokines in the culture supernatants were measured using the ELISA kit (R&D systems, #DY266, #DY9345-05) according to the manufacture's instruction.
# Briefly, each well of a 96-well plate was coated with 100 μL of the diluted capture antibody in PBS and incubated overnight at room temperature (RT). Next day, each well was washed with wash buffer (0.05% Tween 20 in PBS) three times using an auto-washer. The plates were blocked with 300 μL of Reagent Diluent (1% BSA in PBS) for 1 hour at RT. The aspiration/wash step was repeated. 100 μL of diluted samples or standards in Reagent Diluent was added to each well and incubated for 2 hours at RT. After wash, 100 μL of the Detection Antibody pre-diluted in Reagent Diluent was added into each well and incubated for 2 hours at RT. After wash, 100 μL of the working diluted […] in Reagent Diluent was added and incubated under subdued light conditions for 20 minutes, followed by repeated aspiration/wash. 100 μL of substrate solution (mixed H2O2 and Tetramethylbenzidine in a 1:1 ratio) was added and incubated for 20 minutes at RT in avoiding direct light exposure. The reaction was stopped by adding 50 μL of stop solution (2N H2SO4). The optical density was determined using a microplate reader (Molecular Devices VersaMax Microplate Reader). The optical density (O.D.) of each well was normalized by subtracting the reading at 570 nm from the reading at 450 nm.
Structure (SMILES),"AUC∞, norm [2]","Cmax, norm [2]",AUC(0-inf) [2],AUC(0-t) [2],C0 [2],Cmax [2],clearance [2],half-life [2],Vd [2],EC50 [5],EC50 [6],CC50 at 72 h [1],"CD69 expression on CD8+ T cells ([3]; 100 nM, 48 hours, FIG. 4A)","CD69 expression on NK cells ([3]; 100 nM, 48 hours, FIG. 4B)",CC50 at 72 h [4],human CXCL-10 production [7],human IFNα production [7],expansion of activated CD8+ T cells [3],expansion of activated NK cells [3]
CCn1nc(C)cc1C(=O)Nc1nc2cc(C(N)=O)cc(OC)c2n1C/C=C/Cn1c(NC(=O)c2cc(C)nn2CC)nc2cc(C(N)=O)cc(OC/C=C/Cn3cc(NC(=O)OCc4ccc(O[C@@H]5O[C@H](C(=O)O)[C@@H](O)[C@H](O)[C@H]5O)c(C(=O)NCCOCCOCCO)c4)cn3)c21 [Compound 277],7.37 ± 0.25 kg·h/L,4.04 ± 0.24 kg/L,11100 ± 370 ng·h/mL,10500 ± 490 ng·h/mL,6530 ± 320 ng/mL,6060 ± 360 ng/mL,2.33 mL/min/kg,82.8 ± 11.4 min,0.27 ± 0.03 L/kg,0.2 nM,27.4 nM,32.1 nM,enhanced CD69 expression,enhanced CD69 expression,13.5 nM,,,,
CCn1nc(C)cc1C(=O)Nc1nc2cc(C(N)=O)cc(OC)c2n1CC=CCn1c(NC(=O)c2cc(C)nn2CC)nc2cc(C(N)=O)cc(OCCCN3CCN(C(=O)OCc4ccc(OC5OC(C(=O)O)C(O)C(O)C5O)c(C(=O)NCCOC)c4)CC3=O)c21 (centres unmarked) [Compound 221],4.53 ± 0.15 kg·h/L,5.37 ± 0.30 kg/L,6800 ± 230 ng·h/mL,6670 ± 220 ng·h/mL,9790 ± 430 ng/mL,8060 ± 450 ng/mL,3.67 mL/min/kg,63.6 ± 2.4 min,0.26 ± 0.01 L/kg,,68.3 nM,,,,,induced cytokine production,induced cytokine production,,
CCn1nc(C)cc1C(=O)Nc1nc2cc(C(N)=O)cc(OC/C=C/Cn3cc(NC(=O)OCc4ccc(O[C@@H]5O[C@H](C(=O)O)[C@@H](O)[C@H](O)[C@H]5O)c(C(=O)NCCOCCOCCN5CCOCC5)c4)cn3)c2n1C/C=C/Cn1c(NC(=O)c2cc(C)nn2CC)nc2cc(C(N)=O)cc(OCCCC(=O)O)c21 [Compound 361],,,,,,,,,,0.1 nM,35.8 nM,,,,,,,enhanced expansion,enhanced expansion

# Now those with a lower EC50 [6], led by results:
"AUC∞, norm [2]","Cmax, norm [2]",AUC(0-inf) [2],AUC(0-t) [2],C0 [2],Cmax [2],clearance [2],half-life [2],Vd [2],EC50 [5],EC50 [6],Structure (SMILES),CC50 at 72 h [1],"CD69 expression on CD8+ T cells ([3]; 100 nM, 48 hours, FIG. 4A)","CD69 expression on NK cells ([3]; 100 nM, 48 hours, FIG. 4B)",CC50 at 72 h [4],human CXCL-10 production [7],human IFNα production [7],expansion of activated CD8+ T cells [3],expansion of activated NK cells [3]
,,,,,,,,,,3.96 nM,CCn1nc(C)cc1C(=O)Nc1nc2cc(C(N)=O)cc(OC)c2n1C/C=C/Cn1c(NC(=O)c2cc(C)nn2CC)nc2cc(C(N)=O)cc(OCc3cccc(NC(=O)OCc4ccc(O[C@@H]5O[C@H](C(=O)O)[C@@H](O)[C@H](O)[C@H]5O)c(C(=O)NCCOC)c4)c3)c21 [Compound 230],,,,,induced cytokine production,induced cytokine production,,
,,,,,,,,,0.24 nM,11.1 nM,CCn1nc(C)cc1C(=O)Nc1nc2cc(C(N)=O)cc(OC)c2n1C/C=C/Cn1c(NC(=O)c2cc(C)nn2CC)nc2cc(C(N)=O)cc(OC/C=C/Cn3cc(NC(=O)OCc4ccc(O[C@@H]5O[C@H](C(=O)O)[C@@H](O)[C@H](O)[C@H]5O)c(C(=O)NCCOCCOCCO[C@@H]5O[C@H](C(=O)O)[C@@H](O)[C@H](O)[C@H]5O)c4)cn3)c21 [Compound 344],,,,,,,enhanced expansion,enhanced expansion
